Test system: HEK293-STF3A cells
Assay: STF3A assay (luciferase reporter)
Format: cell-based
Conditions: Homo sapiens, 24 h, 1 day of treatment
Procedure: HEK293-STF cell line was modified from Human embryonic kidney cell line HEK293 transfected with the STF reporter. HEK293-STF3A cell line was further modified from HEK293-STF cell line to express Wnt3A. This cell line was used to identify compounds that regulate either early or late signalling components of the Wnt pathway. L-Wnt3A (ATCC, #CRL-2647) cell line was used for providing Wnt3A conditioned media. The three cell lines were grown in DMEM (Dulbecco's Modified Eagle Medium) with 10% FBS (fetal bovine serum) incubated in 37° C. with 5% CO2. 2×10^4 HEK293-STF3A cells in 75 μl culture media were seeded in each well of white 96 well plates (Greiner #655098) and incubated overnight at 37° C. 25 μl serially diluted compound was added to the cells to give final concentration of 50 μM to 1.5 nM. After 1 day of treatment, 100 μl of Steady-Glo® Luciferase Assay reagent (#E2520, Promega) was added to each well and incubated for 10 minutes at room temperature. Luminescence was measured using Tecan Safire2® plate reader.

| SMILES | IC50 [nM] |
| --- | --- |
| Cn1c(=O)c2c(nc(C3CC3)n2CC(=O)Nc2ccc(-c3ccsc3)cc2)n(C)c1=O [Compound 68, 2-(8-cyclopropyl-1,3-dimethyl-2,6-dioxo-2,3-dihydro-1H-purin-7(6H)-yl)-N-(4-(thiophen-3-yl)phenyl)acetamide] | < 100 |
| C[C@H](C(=O)Nc1ccc(-c2ccccc2)nn1)n1cnc2c1c(=O)n(C)c(=O)n2C [Compound 80, (R)-2-(1,3-dimethyl-2,6-dioxo-2,3-dihydro-1H-purin-7(6H)-yl)-N-(6-phenylpyridazin-3-yl)propanamide] | > 10000 |
| COC(=O)c1ccc(-c2ccc(NC(=O)Cn3cnc4c3c(=O)n(C)c(=O)n4C)cc2)cc1 [Compound 38, methyl 4′-(2-(1,3-dimethyl-2,6-dioxo-2,3-dihydro-1H-purin-7(6H)-yl)acetamido)biphenyl-4-carboxylate] | < 100 |
| C[C@@H](C(=O)Nc1ccc(-c2nccs2)cn1)n1cnc2c1c(=O)n(C)c(=O)n2C [Compound 84, (S)-2-(1,3-dimethyl-2,6-dioxo-1,2,3,6-tetrahydro-7H-purin-7-yl)-N-(5-(thiazol-2-yl)pyridin-2-yl)propanamide] | < 100 |
| CC(C(=O)Nc1ccc(-c2nccs2)cc1)n1cnc2c1c(=O)n(C)c(=O)n2C (centres unmarked) [Compound 81, 2-(1,3-dimethyl-2,6-dioxo-2,3-dihydro-1H-purin-7(6H)-yl)-N-(4-(thiazol-2-yl)phenyl)propanamide] | < 100 |
| Cn1c(=O)c2c(ncn2CCC(=O)Nc2ccc(-c3nccs3)cc2)n(C)c1=O [Compound 93, 3-(1,3-dimethyl-2,6-dioxo-1,2,3,6-tetrahydro-7H-purin-7-yl)-N-(4-(thiazol-2-yl)phenyl)propanamide] | < 1000 |
| CN(C(=O)Cn1cnc2c1c(=O)n(C)c(=O)n2C)c1ccc(-c2ccsc2)cc1 [Compound 17, 2-(1,3-dimethyl-2,6-dioxo-2,3-dihydro-1H-purin-7(6H)-yl)-N-methyl-N-(4-(thiophen-3-yl)phenyl)acetamide] | > 10000 |
| Cn1c(=O)c2c(ncn2CC(=O)Nc2ccc(-c3ccc(OC(F)(F)F)cc3)cc2)n(C)c1=O [Compound 31, 2-(1,3-dimethyl-2,6-dioxo-2,3-dihydro-1H-purin-7(6H)-yl)-N-(4′-(trifluoromethoxy)biphenyl-4-yl)acetamide] | < 5000 |
| Cc1nc(-c2ccc(NC(=O)[C@H](C)n3cnc4c3c(=O)n(C)c(=O)n4C)nc2)cs1 [Compound 86, (S)-2-(1,3-dimethyl-2,6-dioxo-2,3-dihydro-1H-purin-7(6H)-yl)-N-(5-(2-methylthiazol-4-yl)pyridin-2-yl)propanamide] | < 100 |
| Cn1c(=O)c2c(nc(N3CCOCC3)n2CC(=O)Nc2ccc(-c3ccsc3)cc2)n(C)c1=O [Compound 74, 2-(1,3-dimethyl-8-morpholino-2,6-dioxo-2,3-dihydro-1H-purin-7(6H)-yl)-N-(4-(thiophen-3-yl)phenyl)acetamide] | < 1000 |
| Cn1c(=O)c2c(ncn2CC(=O)Nc2ccc(N3CCN(Cc4cccc(F)c4)CC3)cn2)n(C)c1=O [Compound 57, 2-(1,3-dimethyl-2,6-dioxo-2,3-dihydro-1H-purin-7(6H)-yl)-N-(5-(4-(3-fluorobenzyl)piperazin-1-yl)pyridin-2-yl)acetamide] | < 100 |
| Cn1c(=O)c2c(ncn2CC(=O)Nc2ccc(-c3cnco3)cc2)n(C)c1=O [Compound 40, 2-(1,3-dimethyl-2,6-dioxo-2,3-dihydro-1H-purin-7(6H)-yl)-N-(4-(oxazol-5-yl)phenyl)acetamide] | < 1000 |
| Cn1c(=O)c2c(nc(-c3cccs3)n2CC(=O)Nc2ccc(-c3ccsc3)cc2)n(C)c1=O [Compound 75, 2-(1,3-dimethyl-2,6-dioxo-8-(thiophen-2-yl)-2,3-dihydro-1H-purin-7(6H)-yl)-N-(4-(thiophen-3-yl)phenyl)acetamide] | < 1000 |
| Cn1c(=O)c2c(ncn2CC(=O)Nc2ccc(N3CCN(C(=O)c4cccc(F)c4)CC3)cn2)n(C)c1=O [Compound 51, 2-(1,3-dimethyl-2,6-dioxo-2,3-dihydro-1H-purin-7(6H)-yl)-N-(5-(4-(3-fluorobenzoyl)piperazin-1-yl)pyridin-2-yl)acetamide] | < 1000 |
| Cc1cccc(-c2ccc(NC(=O)Cn3cnc4c3c(=O)n(C)c(=O)n4C)cc2)c1 [Compound 29, 2-(1,3-dimethyl-2,6-dioxo-2,3-dihydro-1H-purin-7(6H)-yl)-N-(3′-methylbiphenyl-4-yl)acetamide] | < 100 |
| Cc1ccc(-c2ccc(NC(=O)Cn3cnc4c3c(=O)n(C)c(=O)n4C)cc2)cc1 [Compound 30, 2-(1,3-dimethyl-2,6-dioxo-2,3-dihydro-1H-purin-7(6H)-yl)-N-(4′-methylbiphenyl-4-yl)acetamide] | < 100 |
| Cn1c(=O)c2c(ncn2CC(=O)Nc2ccc(N3CCN(Cc4ccc(F)cc4)CC3)cn2)n(C)c1=O [Compound 56, 2-(1,3-dimethyl-2,6-dioxo-2,3-dihydro-1H-purin-7(6H)-yl)-N-(5-(4-(4-fluorobenzyl)piperazin-1-yl)pyridin-2-yl)acetamide] | < 1000 |
| Cn1c(=O)c2c(nc(Br)n2CC(=O)Nc2ccc(-c3ccsc3)cc2)n(C)c1=O [Compound 76, 2-(8-bromo-1,3-dimethyl-2,6-dioxo-2,3-dihydro-1H-purin-7(6H)-yl)-N-(4-(thiophen-3-yl)phenyl)acetamide] | < 100 |
| Cn1c(=O)c2c(ncn2CCCC(=O)Nc2ccc(-c3cccs3)cc2)n(C)c1=O [Compound 91, 4-(1,3-dimethyl-2,6-dioxo-1,2,3,6-tetrahydro-7H-purin-7-yl)-N-(4-(thiophen-2-yl)phenyl)butanamide] | < 100 |
| CC(C(=O)Nc1ccc(N2CCN(Cc3cc(F)cc(F)c3)CC2)cc1)n1cnc2c1c(=O)n(C)c(=O)n2C (centres unmarked) [Compound 63, N-(4-(4-(3,5-difluorobenzyl)piperazin-1-yl)phenyl)-2-(1,3-dimethyl-2,6-dioxo-2,3-dihydro-1H-purin-7(6H)-yl)propanamide] | < 1000 |
| CC(C(=O)Nc1ccc(N2CCN(C(=O)OC(C)(C)C)CC2)cc1)n1cnc2c1c(=O)n(C)c(=O)n2C (centres unmarked) [Compound 23, tert-butyl 4-(4-(2-(1,3-dimethyl-2,6-dioxo-2,3-dihydro-1H-purin-7(6H)-yl)propanamido)phenyl)piperazine-1-carboxylate] | < 100 |
| Cn1c(=O)c2c(ncn2CC(=O)Nc2ccc(-c3ccccn3)cn2)n(C)c1=O [Compound 9, N-(2,3′-bipyridin-6′-yl)-2-(1,3-dimethyl-2,6-dioxo-2,3-dihydro-1H-purin-7(6H)-yl)acetamide] | < 100 |
| Cn1c(=O)c2c(ncn2CC(=O)Nc2cc(-c3ccccc3)no2)n(C)c1=O [Compound 39, 2-(1,3-dimethyl-2,6-dioxo-2,3-dihydro-1H-purin-7(6H)-yl)-N-(3-phenylisoxazol-5-yl)acetamide] | > 10000 |
| C[C@@H]1CNCCN1c1ccc(NC(=O)Cn2cnc3c2c(=O)n(C)c(=O)n3C)cc1 [Compound 44, (R)-2-(1,3-dimethyl-2,6-dioxo-2,3-dihydro-1H-purin-7(6H)-yl)-N-(4-(2-methylpiperazin-1-yl)phenyl)acetamide] | > 10000 |
| Cn1c(=O)c2c(ncn2CCCC(=O)Nc2ccc(-c3ccsc3)cc2)n(C)c1=O [Compound 88, 4-(1,3-dimethyl-2,6-dioxo-1,2,3,6-tetrahydro-7H-purin-7-yl)-N-(4-(thiophen-3-yl)phenyl)butanamide] | < 100 |
| Cn1c(=O)c2c(ncn2CC(=O)Nc2ccc(N3CCN(C(=O)OC(C)(C)C)CC3)cn2)n(C)c1=O [Compound 20] | < 100 |

— patent US12559495B2 (Agency for Science, Technology and Research, priority 2013, dated 2026)
